Patent US10561723B2, “Treatment and prevention of anal conditions” (priority 2015, dated 2020)
Entries after “also recorded” stand apart in the source; their conditions may differ.

Key:
anal dysplasia [1] = assay: Anal pap smear cytology, case report Example 3; assay type: in vivo, human; conditions: Ex.3, imiquimod + HPV-9 vaccine
Excerpt: (§1) Case Report Summary: The patient is a HIV positive gay with chronic HIV infection who presents with recurrent high grade squamous intraepithelial lesion (HSIL) post multiple ablative treatments. The patient received treatment for their HIV disease with a combination of anti-retroviral medicatons (abacavir, etravirine, prezista and ritonavir which was later modified to dolutegravir, etravirine and prezista and ritonavir). Over the past two years the CD4 count has been in the range of 250-350 and there has been low level HIV viremia (40-400 copies range per ml of plasma) due to intermittent adherence. The patient has other co-morbid conditions including hepatitis C, hypertension, hyperlipidemia, osteoporosis, and high risk sexual activity.
(§2) May 29, 2015 Discussed immunotherapy for recurrent HSIL after failing ablative therapies described above. Patient received HPV-9 vaccine intramuscular in the deltoid. This is the start of the immunotherapy protocol. Patient starts the intra-anal application of 5% imiquimod cream three times per week.
(§3) Jan. 15, 2016 4th perianal HPV-9 vaccination given. Discontinue 5% intra-anal imiquimod cream and begin 5% 5-fluorouracil cream intra-anally three times a week for 20 weeks.

[2] = tested on: anal intraepithelial neoplasia (AIN); assay: HRA with biopsies, case report Example 3; assay type: in vivo, human; conditions: Ex.3; for anal dysplasia, overall outcome of immunotherapy protocol: 5% imiquimod cream with perianal HPV-9 immunizations followed by 4-5 months of 2-3 times weekly intra-anal 5% 5-fluorouracil cream
Excerpt: as §1, §2, §3

[3] = Side effects, case report Example 3; assay type: in vivo, human; conditions: Ex.3; for most notable side effects of the immunotherapy protocol: 5% imiquimod cream and 5% 5-fluorouracil cream intra-anally, resolved on brief cessation or reduced frequency
Excerpt: Aug. 7, 2015 HRA done and biopsies taken. […] Pt told to wait until irritation has abated before continuing the imiquimod cream treatments. First perianal HPV-9 vaccination given.
The above case report represents a case of recurrent anal HSIL status post multiple ablative procedures. The patient has HIV infection and thus is moderately immunosuppressed. In spite of the immunosuppression, the patient was able to clear not only HSIL (AIN 2 and AIN 3) but also was able to clear LSIL (AIN 1). The presence of a normal anal pap smear result on Jun. […] 20, 2016. […] It is presumed that the use of the 5-fluorouracil cream treated nests of dysplastic cells that if not treated would likely lead to recurrent LSIL or HSIL. Thus, the immunotherapy protocol may be useful for patients in a salvage situation who have failed multiple ablative procedures with recurrent HSIL in the setting of immunosuppression due to HIV infection. […] This might be due to the immunosuppression secondary to chronic HIV infection.

[4] = tested on: anal intraepithelial neoplasia (AIN); assay: High resolution anoscopy (HRA) with biopsies, case report Example 1; assay type: in vivo, human
Experimental: (§4) Case Report Summary: A HIV negative patient with multifocal AIN 2 and AIN 3 in the anal transitional zone was enrolled. The patient was treated with intra-anal imiquimod followed by an intramuscular dose of HPV4 followed by four perianal HPV4 immunizations, each separated by 3-4 weeks. The patient was screened for high risk (HR) HPV DNA on a weekly basis and had multiple biopsies to identify possible dysplasia.
(§5) Detailed Data and Results: A HIV negative person presented for routine health care. […] Patient was referred for HRA. […] 5, 2014. Biopsies indicated the following: distal AIN 1 at three o'clock; AIN 1 at 4 o'clock; AIN 2 at 7 o'clock; AIN 2 at 10 o'clock; and AIN 2 at 12 o'clock. FIGS. 1B and 1C are posterior and anterior views, respectively, showing circumferential staining of the anal canal. Patient received the first immunization with qHPV vaccine IM in the deltoid on Nov. 13, 2014. On Dec. 1, 2014, the patient received the first perianal qHPV vaccine. They started to use 5% imiquimod on Dec. 1, 2014 with one packet applied intra-anally three times weekly.

anal dysplasia [5] = assay: Anal pap smear cytology, case report Example 1; assay type: in vivo, human
Experimental: as §4, §5

HPV DNA / AIN = conditions: cited from earlier work
[6] = Tolerability, case report Example 1; assay type: in vivo, human; conditions: Ex.1; intra-anal 5% imiquimod 3x/wk; resolved, restarted after several days to one week
Excerpt: On Dec. 29, 2014 the patient was again examined and had ASCUS anal pap smear. The anal pap was negative for high risk HPV types. […] The erythema and discomfort resolved and imiquimod was restarted after a period of several days to one week. On Jan. 27, 2015 the anal pap smear was normal and negative for high risk HPV DNA. They received the third perianal qHPV vaccine.

[7] = tested on: HPV other high risk types; assay: Anal HPV typing/assay, case report Example 3; assay type: in vivo, human
Excerpt: as §1, §2, §3

high risk (HR) HPV DNA = assay: Anal pap high risk HPV DNA screen, case report Example 1; assay type: in vivo, human
Experimental: as §4, §5

hepatitis C, genotype 1 = assay: Hepatitis C treatment of the Example 3 patient; assay type: in vivo, human; conditions: Ex.3 patient; 12 weeks of treatment; 12 weeks post completion of therapy
[8] = then intra-anal 5% 5-fluorouracil cream from Jan. 15, 2016, Jun. 20, 2016
[9] = imiquimod + HPV-9 vaccine, then intra-anal 5% 5-fluorouracil cream from Jan. 15, 2016, Apr. 21, 2016
[10] = imiquimod + HPV-9 vaccine, then intra-anal 5% 5-fluorouracil cream from Jan. 15, 2016, Jun. 20, 2016
[11] = Ex.1 HIV negative male with AIN 2/3, intra-anal 5% imiquimod 3x/wk + qHPV (HPV4) vaccine (IM, then 4 perianal)
[12] = Ex.1, imiquimod + qHPV vaccine, Dec. 11, 2014
[13] = Ex.1, imiquimod + qHPV vaccine, Dec. 29, 2014
[14] = Ex.1, imiquimod + qHPV vaccine, Feb. 10, 2015
[15] = Ex.1, imiquimod + qHPV vaccine, Feb. 25, 2015
[16] = Ex.1, imiquimod + qHPV vaccine, Jan. 27, 2015
[17] = Ex.1, imiquimod + qHPV vaccine, Pathology Report I
[18] = Ex.1, imiquimod + qHPV vaccine, Pathology Report II (Feb. 25, 2015)

**Q.** Which anal pap cytology (anal dysplasia [1]; [8]) does the source give for `O=c1[nH]cc(F)c(=O)[nH]1` [5-fluorouracil] here?
**A.** negative for intraepithelial lesion and malignancy

**Q.** What about the “anal dysplasia, overall outcome of immunotherapy protocol” value [2] of the same molecule?
**A.** clearance of anal dysplasia (AIN 1, AIN 2 and AIN 3)

**Q.** And the HRA biopsies histology [2, 9]?
**A.** 3 o'clock—AIN 1; 5 o'clock—AIN 1; 6 o'clock—AIN 1; 9 o'clock—AIN 1; 10 o'clock—benign; 12 o'clock—benign

**Q.** What about the HRA biopsies histology [2, 10] of the same molecule?
**A.** 3 o'clock—benign; 9 o'clock—benign anal mucosa; 10 o'clock—benign anal mucosa; 12 o'clock—benign anal mucosa

**Q.** And the “most notable side effects of the immunotherapy protocol” value [3]?
**A.** anal and perianal irritation

**Q.** With `CC(C)Cn1cnc2c(N)nc3ccccc3c21` [imiquimod, 3-(2-Methylpropyl)-3,5,8-triazatricyclo[7.4.0.0^2,6]trideca-1(9),2(6),4,7,10,12-hexaen-7-amine] as the molecule, how does the anal pap cytology (anal dysplasia [1]; [8]) read?
**A.** negative for intraepithelial lesion and malignancy

**Q.** What about the anal pap cytology (anal dysplasia [1]; Oct. 28, 2015) of the same molecule?
**A.** atypical cells of undetermined significance (ASCUS)

**Q.** And the anal pap cytology (anal dysplasia [1]; Sep. 30, 2015)?
**A.** LSIL

**Q.** What about the “anal dysplasia, overall outcome” value [4, 11] of the same molecule?
**A.** resolution of anal dysplasia

**Q.** What about the HRA biopsies histology [4, 12] of the same molecule?
**A.** AIN 1 at 4 o'clock; AIN 2 at 7 o'clock and AIN 3 at 12 o'clock

**Q.** And the HRA biopsies histology [4, 13]?
**A.** AIN 2 at 7 o'clock and focal AIN 1 at 12 o'clock

**Q.** What about the HRA biopsies histology [4, 14] of the same molecule?
**A.** normal histology at 4, AIN 1 at 10 and small focal AIN 2 at 12 o'clock

**Q.** What about the “anoscopist's observation of anal canal epithelium” value [4, 15] of the same molecule?
**A.** remodeling of the anal canal epithelium, replacing thickened dysplastic epithelium with thin, translucent epithelium, which is normal

**Q.** What about the “biopsies at 2, 6, 10 and 12 o'clock” value [4, 16] of the same molecule?
**A.** all normal without evidence of dysplasia

**Q.** And the “biopsy diagnosis, anal canal 4 o'clock (transition zone)” value [4, 17]?
**A.** no evidence of dysplasia or malignancy

**Q.** What about the “biopsy diagnosis, anal canal 10 o'clock (transition zone)” value [4, 17] of the same molecule?
**A.** AIN 1

**Q.** What about the “biopsy diagnosis, anal canal 12 o'clock (transition zone)” value [4, 17] of the same molecule?
**A.** AIN 2

**Q.** And the “biopsy diagnosis, anal canal 5 o'clock” value [4, 18]?
**A.** no evidence of dysplasia or malignancy

**Q.** What about the “biopsy diagnosis, anal canal 7 o'clock” value [4, 18] of the same molecule?
**A.** no evidence of dysplasia or malignancy

**Q.** What about the “biopsy diagnosis, anal canal 10 o'clock” value [4, 18] of the same molecule?
**A.** no evidence of dysplasia or malignancy

**Q.** What about the “biopsy diagnosis, anal canal 12 o'clock” value [4, 18] of the same molecule?
**A.** no evidence of dysplasia or malignancy

**Q.** And the “anal Pap smear, overall outcome” value (anal dysplasia [5]; [11])?
**A.** normalization of the anal Pap smear from ASCUS

**Q.** What about the “anal pap smear cytology” value (anal dysplasia [5]; [13]) of the same molecule?
**A.** ASCUS

**Q.** What about the anal pap cytology (anal dysplasia [5]; Ex.1, imiquimod + qHPV vaccine, Feb. 10, 2015 (Pathology Report I concurrent pap)) of the same molecule?
**A.** normal; also recorded: negative for intraepithelial lesion and malignancy

**Q.** And the “anal pap smear cytology” value (anal dysplasia [5]; Ex.1, imiquimod + qHPV vaccine, Feb. 25, 2015 (Pathology Report II concurrent pap))?
**A.** normal; also recorded: negative for intraepithelial lesion and malignancy

**Q.** And the “anal pap smear cytology” value (anal dysplasia [5]; [16])?
**A.** normal

**Q.** What about the “developed recurrent AIN” value (HPV DNA / AIN; after intra-anal 5% imiquimod cream, mean follow up approximately 30 months, often HPV types differing from start) of the same molecule?
**A.** 5 patient

**Q.** What about the “HPV DNA viral loads” value (HPV DNA / AIN; intra-anal 5% imiquimod cream three times weekly for 16 weeks, 19 HIV positive men with AIN) of the same molecule?
**A.** decreased

**Q.** And the “anal dysplasia, overall outcome of immunotherapy protocol” value [2]?
**A.** clearance of anal dysplasia (AIN 1, AIN 2 and AIN 3)

**Q.** What about the HRA biopsies histology ([2]; imiquimod + HPV-9 vaccine IM, Aug. 7, 2015) of the same molecule?
**A.** 3 o'clock—AIN 2; 4 o'clock—AIN 1; 9 o'clock—AIN 1; 10 o'clock distal—AIN 1; 12 o'clock AIN 2

**Q.** And the HRA biopsies histology [2, 9]?
**A.** 3 o'clock—AIN 1; 5 o'clock—AIN 1; 6 o'clock—AIN 1; 9 o'clock—AIN 1; 10 o'clock—benign; 12 o'clock—benign

**Q.** What about the HRA biopsies histology [2, 10] of the same molecule?
**A.** 3 o'clock—benign; 9 o'clock—benign anal mucosa; 10 o'clock—benign anal mucosa; 12 o'clock—benign anal mucosa

**Q.** And the HRA biopsies histology ([2]; imiquimod + HPV-9 vaccine, Dec. 9, 2015)?
**A.** 3 o'clock AIN—1; 6 o'clock—AIN 1; 9 o'clock—benign

**Q.** What about the HRA biopsies histology ([2]; imiquimod + HPV-9 vaccine, Oct. 28, 2015) of the same molecule?
**A.** 1 o'clock—AIN 1; 4 o'clock—benign; 9 o'clock—AIN 1; 12 o'clock—AIN 1

**Q.** And the HRA biopsies histology ([2]; imiquimod + HPV-9 vaccine, Sep. 30, 2015)?
**A.** 3 o'clock—AIN 1; 4 o'clock—AIN 1; 9 o'clock—AIN 1; 10 o'clock—AIN 1; 12 o'clock—benign

**Q.** And the “local adverse effect leading to interruptions of imiquimod cream” value [6]?
**A.** increased perianal erythema

**Q.** And the “most notable side effects of the immunotherapy protocol” value [3]?
**A.** anal and perianal irritation

**Q.** What about the “patient complaints due to imiquimod cream treatments” value ([3]; intra-anal 5% imiquimod cream 3x/wk, Aug. 7, 2015) of the same molecule?
**A.** anal irritation and spotting of blood per anus

**Q.** What about the HPV typing ([7]; Ex.3 HIV positive male, recurrent HSIL after ablative treatments, intra-anal 5% imiquimod 3x/wk + HPV-9 vaccine IM (May 29, 2015), Aug. 7, 2015) of the same molecule?
**A.** positive for other high risk types

**Q.** And the HPV assay ([7]; Ex.3, imiquimod + HPV-9 vaccine (IM, 1 perianal), Sep. 30, 2015)?
**A.** continued presence of other HPV high risk types

**Q.** And the “HR HPV DNA, overall outcome” value (high risk (HR) HPV DNA; [11])?
**A.** loss of HR HPV DNA including HPV16

**Q.** What about the “anal pap high risk HPV DNA” value (high risk (HR) HPV DNA; [12]) of the same molecule?
**A.** negative

**Q.** And the “anal pap high risk HPV types” value (high risk (HR) HPV DNA; [13])?
**A.** negative

**Q.** What about the “anal pap high risk HPV DNA” value (high risk (HR) HPV DNA; [14]) of the same molecule?
**A.** negative

**Q.** What about the “HPV DNA” value (high risk (HR) HPV DNA; [15]) of the same molecule?
**A.** negative

**Q.** What about the “anal pap high risk HPV DNA” value (high risk (HR) HPV DNA; [16]) of the same molecule?
**A.** negative

**Q.** With `CCN(CC)CC(=O)Nc1c(C)cccc1C` [lidocaine] as the molecule, how does the “burning at the site of HPV vaccination” value ([3]; local infusion of 1% lidocaine prior to perianal HPV-9 vaccinations) read?
**A.** much less burning

**Q.** Which virologic response (hepatitis C, genotype 1) does the source give for sofosbuvir/ledipasvir here?
**A.** sustained virologic response
